Conditions: 283.14 K, Liquid, Vibrating tube method

FC(C(F)(F)F)C(F)(F)F [1,1,1,2,3,3,3-heptafluoropropane]
Conditions | mass density [kg/m3]
933 kPa | 1452.5
962 kPa | 1452.6
988 kPa | 1452.7
1029 kPa | 1453
1062 kPa | 1453.3
1091 kPa | 1453.4
1127 kPa | 1453.7
1160 kPa | 1453.8
1193 kPa | 1454
1227 kPa | 1454.2
1264 kPa | 1454.5
1297 kPa | 1454.5
1331 kPa | 1454.9
1362 kPa | 1454.9
1400 kPa | 1455.2
1438 kPa | 1455.5
1476 kPa | 1455.6
1508 kPa | 1455.9
1543 kPa | 1456
1576 kPa | 1456.3
1621 kPa | 1456.5
1656 kPa | 1456.8
1696 kPa | 1456.8
1725 kPa | 1457.1
1760 kPa | 1457.3
1800 kPa | 1457.5
1829 kPa | 1457.7
1869 kPa | 1457.9
1899 kPa | 1458.1
1939 kPa | 1458.4
1978 kPa | 1458.6
2027 kPa | 1458.8
2062 kPa | 1459.1
2097 kPa | 1459.2
2137 kPa | 1459.6
2167 kPa | 1459.6
2214 kPa | 1460
2245 kPa | 1460.1
2282 kPa | 1460.4
2317 kPa | 1460.6
2349 kPa | 1460.8
2385 kPa | 1460.9
2431 kPa | 1461.1
2457 kPa | 1461.1
2499 kPa | 1461.5
2536 kPa | 1461.6
2578 kPa | 1461.9
2615 kPa | 1462.1
3150 kPa | 1465
3179 kPa | 1465.2
3208 kPa | 1465.5
3236 kPa | 1465.6
3261 kPa | 1465.6
3292 kPa | 1465.8
3316 kPa | 1465.9
3349 kPa | 1466.2
3370 kPa | 1466.4
3404 kPa | 1466.4
3440 kPa | 1466.6
3467 kPa | 1466.9
3502 kPa | 1467
3528 kPa | 1467
3555 kPa | 1467.3
3582 kPa | 1467.3
3606 kPa | 1467.5
3630 kPa | 1467.6
3997 kPa | 1469.6
4037 kPa | 1469.8
4059 kPa | 1469.8
4089 kPa | 1470.1
4112 kPa | 1470.1
4138 kPa | 1470.4
4161 kPa | 1470.5
4194 kPa | 1470.6
4220 kPa | 1470.8
4246 kPa | 1470.9
4268 kPa | 1471.1
4295 kPa | 1471.2
4326 kPa | 1471.4
4370 kPa | 1471.5
4397 kPa | 1471.6
4431 kPa | 1471.8
4454 kPa | 1472
4485 kPa | 1472.1
4521 kPa | 1472.3
4552 kPa | 1472.4
4587 kPa | 1472.7
4611 kPa | 1472.8
4642 kPa | 1472.9
4662 kPa | 1473.1
4691 kPa | 1473.2
4714 kPa | 1473.3
4746 kPa | 1473.5
4770 kPa | 1473.6
4833 kPa | 1473.9
4872 kPa | 1474.1
4976 kPa | 1474.5
5454 kPa | 1477.2
5490 kPa | 1477.3
5691 kPa | 1478.2
5724 kPa | 1478.4
5757 kPa | 1478.6
5782 kPa | 1478.8
5822 kPa | 1478.8
5855 kPa | 1479
5879 kPa | 1479.1
5908 kPa | 1479.3
5934 kPa | 1479.4
5968 kPa | 1479.6
6005 kPa | 1479.8
6027 kPa | 1480
6058 kPa | 1480
6101 kPa | 1480.2
6135 kPa | 1480.5
6165 kPa | 1480.5
6229 kPa | 1480.8
6973 kPa | 1484.5
7472 kPa | 1486.7
7512 kPa | 1487.1
7539 kPa | 1487.1
7568 kPa | 1487.2
7596 kPa | 1487.1
7625 kPa | 1487.3
7646 kPa | 1487.8
7680 kPa | 1487.8
7705 kPa | 1487.9
7731 kPa | 1488
7762 kPa | 1488.1
7796 kPa | 1488.3
7826 kPa | 1488.4
7851 kPa | 1488.5
7877 kPa | 1488.7
7906 kPa | 1488.9
7932 kPa | 1488.9
7965 kPa | 1489
7991 kPa | 1489.2
8025 kPa | 1489.4
8050 kPa | 1489.5
8079 kPa | 1489.7
8109 kPa | 1489.6
8138 kPa | 1489.9
8164 kPa | 1490.1
8197 kPa | 1490
8223 kPa | 1490.2
8257 kPa | 1490.4
8291 kPa | 1490.6
8322 kPa | 1490.7
10618 kPa | 1500.7
10644 kPa | 1500.8
10678 kPa | 1500.9
10708 kPa | 1501.2
10744 kPa | 1501.3
11092 kPa | 1502.7
11124 kPa | 1502.9
11146 kPa | 1503
11176 kPa | 1503.1
11211 kPa | 1503.2
11232 kPa | 1503.2
11263 kPa | 1503.4
11289 kPa | 1503.6
11324 kPa | 1503.9
11358 kPa | 1503.9
11384 kPa | 1503.9
11414 kPa | 1504.1
11455 kPa | 1504.2
11478 kPa | 1504.3
11508 kPa | 1504.4
11538 kPa | 1504.5
11565 kPa | 1504.7
11601 kPa | 1504.8
11631 kPa | 1505
11663 kPa | 1505
11698 kPa | 1505.4
11725 kPa | 1505.4
11760 kPa | 1505.6
11791 kPa | 1505.6
11822 kPa | 1505.7
11844 kPa | 1505.9
11874 kPa | 1506
11901 kPa | 1506.1
11923 kPa | 1506.3
11958 kPa | 1506.3
11993 kPa | 1506.4
12020 kPa | 1506.5
12055 kPa | 1506.7
12082 kPa | 1506.9
12816 kPa | 1509.7
12856 kPa | 1510.1
12892 kPa | 1510.2
12918 kPa | 1510.3
12955 kPa | 1510.4
12996 kPa | 1510.6
13027 kPa | 1510.6
13054 kPa | 1510.9
13090 kPa | 1510.9
13123 kPa | 1511
13165 kPa | 1511.2
13197 kPa | 1511.2
13235 kPa | 1511.5
13290 kPa | 1511.7
13323 kPa | 1511.8
13385 kPa | 1512
13417 kPa | 1512.2
13454 kPa | 1512.2
13483 kPa | 1512.4
